This data set can be described thus: Maximum solubility of foldamer in chloroform (saturated solution, 1H NMR). Type of data set: physicochemical. The following applies: thermodynamic, dissolved in CDCl3 until saturated; concentration by 1H NMR against a known concentration of CH2Cl2 as internal reference. The method, then:
9. Quantification of foldamer solubility and self-association in CHCl3
9.1 Experimental procedure (dilution)
Compounds 5d (L-αMeVal) and 5e (D-αMeVal) were dissolved in CDCl3 until saturated solutions were formed.
The initial concentration of each sample was measured using a known concentration of CH2Cl2 as an internal […]
Additional volumes of CDCl3 were added to the initial solution and the 1H NMR spectrum at each concentration […]
The binding isotherms were generated using an Excel spreadsheet macro developed by Sanderson.S7a The Solver add-in for Excel was used to calculate the best fit to the NMR data using the ‘GRG onlinear Solvin […]
The following equilibrium is used to calculate the binding isotherms:
Where Kdim is the microscopic association constant and n = 2.
The following equation is used to calculate the binding isotherm: […]
δfree is the free chemical shift of the host
δobs is the observed chemical shift […]
The concentration of the dimeric complex (H)2 is calculated iteratively by solving the following equations: […]
The concentration of free host is calculated according to the concentration difference […]
The propensity of the L-αMeVal-capped foldamer 5d and D-αMeVal-capped foldamer 5e to self-associate was investigated in chloroform by performing a dilution study,S7 which at the same time quantified the solubility of these compounds in this solvent. […]

Non-standard residues stand in square brackets, D forms with d. Residues, ends and D or L forms follow the SMILES beside them. *: point of attachment. d(αMeV) = CC(C)[C@@](C)(N)C(=O)O; αMeV = CC(C)[C@](C)(N)C(=O)O; X1 = C[C@@H](N*)C(F)(F)F; Cbz = O=C(OCc1ccccc1)*; Aib = CC(C)(N)C(=O)O

In the case of `CC(C)[C@](C)(NC(=O)OCc1ccccc1)C(=O)NC(C)(C)C(=O)NC(C)(C)C(=O)NC(C)(C)C(=O)NC(C)(C)C(=O)N[C@H](C)C(F)(F)F` [5d, Cbz(L-MeVal)Aib4(R-TFEA)] (Cbz-[αMeV][Aib][Aib][Aib][Aib]-X1), the “maximum solubility in CHCl3 / chloroform-d” value is 288 mM. Consider `CC(C)[C@@](C)(NC(=O)OCc1ccccc1)C(=O)NC(C)(C)C(=O)NC(C)(C)C(=O)NC(C)(C)C(=O)NC(C)(C)C(=O)N[C@H](C)C(F)(F)F` [5e, Cbz(D-MeVal)Aib4(R-TFEA)] (Cbz-[d(αMeV)][Aib][Aib][Aib][Aib]-X1), for which the “maximum solubility in CHCl3 / chloroform-d” value was found to be 50 mM.
